Paper PMC3818959 (Journal of Ginseng Research, 2013)

Biological target: KCNQ1 (IKs channel, KCNQ1 + KCNE1) (Homo sapiens, UniProt P51787)
Assay: cell-based

Sequence of KCNQ1 (IKs channel, KCNQ1 + KCNE1) (P51787 whole entry): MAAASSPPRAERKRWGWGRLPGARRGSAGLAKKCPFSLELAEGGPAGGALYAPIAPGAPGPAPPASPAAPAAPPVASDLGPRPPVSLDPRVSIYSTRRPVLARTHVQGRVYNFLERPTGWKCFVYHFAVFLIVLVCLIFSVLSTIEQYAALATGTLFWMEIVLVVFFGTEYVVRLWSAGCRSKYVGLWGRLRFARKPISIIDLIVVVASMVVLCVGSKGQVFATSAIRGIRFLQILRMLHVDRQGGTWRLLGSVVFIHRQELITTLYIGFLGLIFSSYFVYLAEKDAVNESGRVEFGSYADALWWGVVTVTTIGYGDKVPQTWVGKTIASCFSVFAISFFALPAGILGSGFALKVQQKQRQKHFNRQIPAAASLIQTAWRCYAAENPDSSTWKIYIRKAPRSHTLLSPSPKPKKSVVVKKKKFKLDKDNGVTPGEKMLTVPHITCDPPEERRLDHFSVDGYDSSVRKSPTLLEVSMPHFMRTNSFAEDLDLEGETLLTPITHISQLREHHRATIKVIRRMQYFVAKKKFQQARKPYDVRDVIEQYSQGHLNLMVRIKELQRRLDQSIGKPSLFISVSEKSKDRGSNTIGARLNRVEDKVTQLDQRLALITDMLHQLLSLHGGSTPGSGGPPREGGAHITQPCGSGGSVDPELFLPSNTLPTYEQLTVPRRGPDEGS

## CC(C)=CCC[C@](C)(O)[C@H]1CC[C@]2(C)[C@@H]1[C@H](O)C[C@@H]1[C@@]3(C)CC[C@H](O)C(C)(C)[C@@H]3[C@@H](O)C[C@]12C [PPT, protopanaxatriol]
  IC50: 5.18 ± 0.13 µM
